{"source": "patent US4863900A", "about": "(priority 1987, dated 1989)", "key": {"[1]": {"tested_on": "HSV1", "assay": "Virus inactivation, surviving virus by plaque assay on VERO cells", "details": "for inactivation of HSV1, temperature effect: 1 hour"}, "[2]": {"tested_on": "HSV2", "assay": "Virus inactivation, surviving virus by plaque assay on VERO cells", "details": "for Percent Survivors HSV-2: 1 hr at 37° C."}, "[3]": {"tested_on": "HSV1", "assay": "Injection of poly-L-histidine treated HSV1 into mice, observed 14 days", "format": "in vivo, Balb/C mice", "details": "HSV1 incubated with 100 μg His-75 in 1 ml, pH 6.0, one hour at 37° C., 50 μl in lower left jaw", "text": "3. All animals were observed daily for 14 days."}, "[4]": {"tested_on": "influenza, Newcastle disease, tobacco mosaic, poliomyelitis, and mumps viruses", "details": "cited from earlier work"}, "[5]": {"details": "pH 5, 100 μg/ml, 1 hour at 37° C."}, "[6]": {"details": "pH 6, 100 μg/ml, 1 hour at 37° C."}, "[7]": {"details": "pH 7, 100 μg/ml, 1 hour at 37° C."}, "[8]": {"details": "pH 8, 100 μg/ml, 1 hour at 37° C."}, "[9]": {"details": "100 μg/ml at 37° C., pH 6.0, samples at 1, 15, 30, 45 and 60 minutes"}}, "data": [{"substance": "poly-L-Histidine [His-64]", "values": [{"measurement": "inactivation of HSV1", "setting": "[1]; [5]", "value": "inactivated"}, {"measurement": "inactivation of HSV1", "setting": "[1]; [6]", "value": "inactivated"}, {"measurement": "inactivation of HSV1", "setting": "[1]; [7]", "value": "Some minor inactivation"}, {"measurement": "inactivation of HSV1", "setting": "[1]; [8]", "value": "none"}]}, {"substance": "poly-L-Histidine [His-75]", "values": [{"measurement": "Percent Survivors HSV-2", "setting": "[2]; 1 μg/ml, pH 6.0", "value": 62, "unit": "%"}, {"measurement": "Percent Survivors HSV-2", "setting": "[2]; 10 μg/ml, pH 6.0", "value": 84, "unit": "%"}, {"measurement": "length of time required for inactivation of HSV2", "setting": "[2]; [9]", "value": "inactivated by as little as one minute of exposure"}, {"measurement": "inactivation of HSV2, temperature effect", "setting": "[2]; 4° C., 22° C. and 37° C., 100 μg/ml, pH 6.0, 1 hour", "value": "inactivation was almost complete"}, {"measurement": "ID50 (amount of drug required to inactivate 50% of the virus)", "setting": "[2]; HSV2, pH 6.0, 1 hour at 37° C., linear regression analysis", "value": 41.15, "unit": "µg/mL"}, {"measurement": "inactivation of HSV2", "setting": "[2]; [5]", "value": "inactivated"}, {"measurement": "inactivation of HSV2", "setting": "[2]; [6]", "value": "inactivated"}, {"measurement": "inactivation of HSV2", "setting": "[2]; [7]", "value": "not"}, {"measurement": "inactivation of HSV2", "setting": "[2]; [8]", "value": "not and Some small amount of inactivation"}, {"measurement": "health of mice injected with poly-L-histidine treated HSV1", "setting": "[3]; listed as Poly-L-histidine", "value": "failed to cause disease"}, {"measurement": "health of mice injected with poly-L-histidine treated HSV1", "setting": "[3]; listed as poly-L-histidine", "value": "remained healthy throughout the study"}, {"measurement": "Percent Survivors HSV-1", "setting": "[1]; 1 μg/ml, pH 6.0, 1 hr at 37° C.", "value": 83, "unit": "%"}, {"measurement": "Percent Survivors HSV-1", "setting": "[1]; 10 μg/ml, pH 6.0, 1 hr at 37° C.", "value": 64, "unit": "%"}, {"measurement": "length of time required for inactivation of HSV1", "setting": "[1]; [9]", "value": "inactivated by as little as one minute of exposure"}, {"measurement": "Percent Survivors HSV-1", "setting": "[1]; 100 μg/ml, pH 6.0, 30 minutes, 37° C., not shifted", "value": 0, "unit": "%"}, {"measurement": "Percent Survivors HSV-1", "setting": "[1]; 100 μg/ml, pH 6.0, 60 minutes, 37° C., not shifted", "value": 0, "unit": "%"}, {"measurement": "inactivation of HSV1, temperature effect", "setting": "[1]; 4° C., 100 μg/ml, pH 6.0", "value": "a small amount of HSV1 survived"}, {"measurement": "inactivation of HSV1, temperature effect", "setting": "[1]; 22° C. and 37° C., 100 μg/ml, pH 6.0", "value": "inactivation was almost complete"}, {"measurement": "ID50 (amount of drug required to inactivate 50% of the virus)", "setting": "[1]; HSV1, pH 6.0, 1 hour at 37° C., linear regression analysis", "value": 44.38, "unit": "µg/mL"}, {"measurement": "inactivation of HSV1", "setting": "[1]; [5]", "value": "efficiently inactivated"}, {"measurement": "inactivation of HSV1", "setting": "[1]; [6]", "value": "efficiently inactivated"}, {"measurement": "inactivation of HSV1", "setting": "[1]; [7]", "value": "not"}, {"measurement": "inactivation of HSV", "setting": "[1]; pH 7.2", "value": "does not inactivate"}, {"measurement": "inactivation of HSV1", "setting": "[1]; [8]", "value": "not"}]}, {"substance": "poly-L-arginine", "values": [{"measurement": "inhibitory activity against viruses", "setting": "[4]", "value": "inhibitory activity"}]}, {"substance": "poly-L-lysine", "values": [{"measurement": "inhibitory activity against viruses", "setting": "[4]", "value": "inhibitory activity"}]}]}
